Experimental data reported in PubChem BioAssay (NCI).
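Briefly, cells in 96-well plates were exposed to five compound concentrations for 48 h, and endpoints were estimated by linear interpolation. The concentration for 50% growth inhibition is given as GI50. TGI: total growth inhibition.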

Experiments:
Assay in all cases: NCI anticancer screen, dose series, 48 h
[1] = tested on: SNB-78 CNS
[2] = tested on: M19-MEL melanoma
[3] = tested on: U251 CNS
[4] = tested on: CAKI-1 renal
[5] = tested on: SR leukemia
[6] = tested on: SW-620 colon
[7] = tested on: KM20L2 colon
[8] = tested on: NCI-H460 lung
[9] = tested on: SF-295 CNS
[10] = tested on: SK-MEL-5 melanoma
[11] = tested on: MCF7 breast

Row | SMILES | TGI [1] [µM] | TGI [2] [µM] | TGI [3] [µM] | TGI [4] [µM] | TGI [5] [µM] | TGI [6] [µM] | TGI [7] [µM] | TGI [8] [µM] | TGI [9] [µM] | TGI [10] [µM] | GI50 [11] [µM] | TGI [11] [µM] | GI50 [10] [µM] | GI50 [3] [µM] | GI50 [4] [µM] | GI50 [5] [µM] | GI50 [6] [µM] | GI50 [8] [µM] | GI50 [9] [µM]
1 | CCOc1ccc(NC(=O)/C(CC(=O)c2c[n+](=O)c3ccccc3n2[O-])=N\OCCCc2ccccc2)cc1 | > 100 | > 100 | > 100 | > 100 | > 100 | > 100 | > 100 | > 100 | > 100 | – | – | – | – | – | – | – | – | – | –
2 | Cc1cccc(C)c1NC(=O)C(=O)Cc1nc2ccccc2s1 | > 100 | > 100 | > 100 | > 100 | – | > 100 | > 100 | > 100 | > 100 | > 100 | – | – | – | – | – | – | – | – | –
3 | Cc1cc(Cl)ccc1NC(=O)CCCC(=O)C1C/C(=N/O)CC/C1=N\O (stereo not given) | > 100 | > 100 | > 100 | > 100 | – | > 100 | > 100 | > 100 | > 100 | > 100 | – | – | – | – | – | – | – | – | –
4 | COc1cc(C)c2c(c1)CN1CN2Cc2cc(OC)cc(C)c21 | > 100 | > 100 | > 100 | > 100 | > 100 | > 100 | – | > 100 | > 100 | 14.4 | – | – | – | – | – | – | – | – | –
5 | Cc1nnc2n1N=C(c1ccccc1)C(c1ccccc1)S2 (stereo not given) | > 100 | > 100 | 72 | > 100 | – | 26.8 | 76.3 | > 100 | > 100 | > 100 | – | – | – | – | – | – | – | – | –
6 | C1=CC(=P(c2ccccc2)(c2ccccc2)c2ccccc2)C=C1 | 26.7 | 14.2 | – | 32.3 | – | 56 | 31.1 | 26 | 30.8 | 30.3 | – | – | – | – | – | – | – | – | –
7 | Cc1cc2c(c(C(=O)O)c1C)-c1cccc(Cl)c1C2=O | > 100 | > 100 | > 100 | > 100 | – | > 100 | > 100 | > 100 | > 100 | > 100 | – | – | – | – | – | – | – | – | –
8 | Cc1c(C)c([N+](=O)[O-])c2c(c1N)C(=O)c1ccccc1C2=O | > 100 | > 100 | > 100 | – | > 100 | > 100 | > 100 | – | > 100 | > 100 | – | – | – | – | – | – | – | – | –
9 | CC(=O)Nc1ccc(C2CC(c3ccc([N+](=O)[O-])cc3)=Nc3ccccc3S2)cc1 (stereo not given) | > 100 | 45.6 | 29.8 | 77.7 | 61.9 | 32.3 | 47.9 | 34.3 | 35 | – | – | – | – | – | – | – | – | – | –
10 | CC(C)(C)C[C@H]1N[C@@H](C(=O)NC2CCC(O)CC2)[C@H](c2cccc(Cl)c2F)[C@@]12C(=O)Nc1cc(Cl)ccc12 (stereo not given in full) | – | – | 21.9 | 12.4 | 5.45 | 29.4 | – | 13.4 | 13.6 | 3.19 | 0.228 | 2.98 | 1.41 | 7.86 | 0.162 | 0.189 | 12.3 | 0.678 | 3.46
11 | Cc1ccc(/C(=N/Nc2ccc([N+](=O)[O-])cc2)Sc2cc(Cl)c(C)cc2S(N)(=O)=O)cc1 | – | – | 16.7 | 3.27 | 3.55 | 10.5 | – | 9.07 | 3.39 | 5.56 | 2.6 | > 21.5 | 1.78 | 4.34 | 1.61 | 0.945 | 2.55 | 2.55 | 1.75
12 | CC1(C)CC(C)(C)c2cc(NC(=S)Nc3ccc([N+](=O)[O-])cc3)ccc2S1 | – | – | 29.4 | 32.1 | > 88.2 | > 80.2 | – | > 69.3 | 27.2 | 19.1 | 29.1 | > 82.1 | 9.23 | 11.1 | 11.5 | 12.9 | 15.6 | 27.6 | 10.8
13 | CCCCCCCC(=O)OCC/C=C/C1OC1C1OC(=O)/C=C\C=C\C(=O)N(C(C)=O)C(=O)/C=C(/C)CCC2OC2C1OC(=O)NC(C)=O (stereo not given) | – | – | 15 | > 25 | > 25 | 24 | – | > 25 | 9.9 | > 25 | 1.7 | 11.5 | 7.03 | 5.54 | 15 | 4.48 | 6.42 | 11.4 | 2.16
14 | CN(C)C(=S)/N=c1\ss/c(=N\C(=S)N(C)C)n1-c1cccc(Cl)c1 | > 100 | – | > 100 | > 100 | > 100 | > 100 | > 100 | > 100 | > 100 | > 100 | – | – | – | – | – | – | – | – | –
15 | Cc1cccc(C2NC(=O)c3ccccc3N2)c1 (stereo not given) | – | – | > 31.6 | > 100 | > 100 | > 100 | – | > 100 | > 23.2 | > 100 | – | > 100 | – | – | – | – | – | – | –
